From US8802664B2 (Bioproject, priority 2010, dated 2014)
Structures can show the parent of a compound that is named as a salt.

SMILES | melting point [°C]
CN1CCC(OC(c2cccc(SCCCN)c2)c2nc3ccccc3s2)CC1 (stereo not drawn) (as salt: oxalate) [Example 314, 3-{3-[benzothiazol-2-yl(1-methylpiperidin-4-yloxy)methyl]phenylsulfanyl}propylamine] | 99
CN1CCC(NC(c2cccc(SCc3ccccc3)c2)c2nc3ccccc3[nH]2)CC1 (stereo not drawn) (as salt: oxalate) [Example 104, [(1H-benzimidazol-2-yl)(3-benzylsulfanylphenyl)methyl](1-methylpiperidin-4-yl)amine] | 127
CN1CCC(OC(c2cccc(OCCF)c2)c2nc3ccccc3[nH]2)CC1 (stereo not drawn) (as salt: oxalate) [Example 476] | 136
CN1CCC(OC(c2cccc(C#CCCCCN)c2)c2nc3ccccc3n2C)CC1 (stereo not drawn) (as salt: oxalate) [Example 480, 6-{3-[(1-methyl-1H-benzimidazol-2-yl)(1-methylpiperidin-4-yloxy)methyl]phenyl}hex-5-ynylamine] | 113
CN1CCC(OC(c2cccc(N3CCCC3CO)c2)c2nc3ccccc3s2)CC1 (stereo not drawn) (as salt: oxalate) [Example 323, (1-{3-[benzothiazol-2-yl(1-methylpiperidin-4-yloxy)methyl]phenyl}pyrrolidin-2-yl)methanol] | 76
CN1CCC(OC(c2cccc(Oc3cccnc3)c2)c2nc3ccccc3s2)CC1 (stereo not drawn) (as salt: oxalate) [Example 448, 2-{(1-methylpiperidin-4-yloxy)[3-(pyridin-3-yloxy)phenyl]methyl}benzothiazole] | 78
CN1CCC(OC(c2cccc(C#CCCCNC(=N)N)c2)c2nc3ccccc3s2)CC1 (stereo not drawn) (as salt: hydrochloride) [Example 340, N-(5-{3-[benzothiazol-2-yl(1-methylpiperidin-4-yloxy)methyl]phenyl}pent-4-ynyl)guanidine] | 180
CN1CCC(OC(c2cccc(OCCCF)c2)c2nc3ccccc3[nH]2)CC1 (stereo not drawn) (as salt: oxalate) [Example 475] | 106
CN1CCC(OC(c2cccc(N3CCC(N(C)C)C3)c2)c2nc3ccccc3s2)CC1 (stereo not drawn) (as salt: oxalate) [Example 484] | 106
C=CCOc1cccc(C(NC2CCN(C)CC2)c2nc3ccccc3[nH]2)c1 (stereo not drawn) (as salt: oxalate) [Example 112, [(3-allyloxyphenyl)(1H-benzimidazol-2-yl)methyl](1-methylpiperidin-4-yl)amine] | 125
CN1CCC(OC(c2cccc(OCCCCN3CCCCC3)c2)c2nc3ccccc3[nH]2)CC1 (stereo not drawn) (as salt: oxalate) [Example 333, 2-{(1-methylpiperidin-4-yloxy)[3-(4-piperidin-1-yl-butoxy)phenyl]methyl}-1H-benzimidazole] | 130
CN1CCC(OC(c2cccc(SC(C)(C)CCO)c2)c2nc3ccccc3s2)CC1 (stereo not drawn) (as salt: oxalate) [Example 242, 3-{3-[benzothiazol-2-yl(1-methylpiperidin-4-yloxy)methyl]phenylsulfanyl}-3-methyl-butan-1-ol] | 80
CN1CCC(OC(c2cccc(CCc3cn(C)cn3)c2)c2nc3ccccc3s2)CC1 (stereo not drawn) (as salt: oxalate) [Example 306, 2-[{3-[2-(1-methyl-1H-imidazol-4-yl)ethyl]phenyl}(1-methylpiperidin-4-yloxy)methyl]benzothiazole] | 80
CN1CCC(OC(c2cccc(OCCCC(F)(F)F)c2)c2nc3ccccc3s2)CC1 (stereo not drawn) (as salt: oxalate) [Example 169, 2-{(1-methylpiperidin-4-yloxy)[3-(4,4,4-trifluoro-butoxy)phenyl]methyl}benzothiazole] | 115
CN1CCC(OC(c2cccc(OCCCCCN)c2)c2nc3ccccc3s2)CC1 (stereo not drawn) (as salt: oxalate) [Example 371, 5-{3-[benzothiazol-2-yl(1-methylpiperidin-4-yloxy)methyl]phenoxy}pentylamine] | 141
CN1CCC(OC(c2cccc(OCCCCO)c2)c2nc3ccccc3s2)CC1 (stereo not drawn) (as salt: oxalate) [Example 266, 4-{3-[benzothiazol-2-yl(1-methylpiperidin-4-yloxy)methyl]phenoxy}butan-1-ol] | 63
CCCCCOc1cccc(C(NC2CCN(C)CC2)c2nc3ccccc3[nH]2)c1 (stereo not drawn) (as salt: oxalate) [Example 95, [(1H-benzimidazol-2-yl)(3-pentyloxyphenyl)methyl](1-methylpiperidin-4-yl)amine] | 128
CN1CCC(OC(c2cccc(CCCCCCN)c2)c2nc3ccccc3s2)CC1 (stereo not drawn) (as salt: oxalate) [Example 325, 6-{3-[benzothiazol-2-yl(1-methylpiperidin-4-yloxy)methyl]phenyl}hexylamine] | 115
CN1CCC(OC(c2cccc(OC3CCNCC3)c2)c2nc3ccccc3s2)CC1 (stereo not drawn) (as salt: oxalate) [Example 415, 2-{(1-methylpiperidin-4-yloxy)[3-(piperidin-4-yloxy)phenyl]methyl}benzothiazole] | 76
CN1CCC(OC(c2cccc(C#CCCCCNC(=N)N)c2)c2nc3ccccc3s2)CC1 (stereo not drawn) (as salt: hydrochloride) [Example 342, N-(6-{3-[benzothiazol-2-yl(1-methylpiperidin-4-yloxy)methyl]phenyl}hex-5-ynyl)guanidine] | 185
CN1CCC(NC(c2cccc(Oc3ccccc3)c2)c2nc3ccccc3[nH]2)CC1 (stereo not drawn) (as salt: oxalate) [Example 85, [(1H-benzimidazol-2-yl)(3-phenoxyphenyl)methyl](1-methylpiperidin-4-yl)amine] | 144
CN1CCC(OC(c2ccc(Cl)cc2)c2nc3ccccc3[nH]2)CC1 (stereo not drawn) (as salt: oxalate) [Example 226, 2-[(4-chlorophenyl)(1-methylpiperidin-4-yloxy)methyl]-1H-benzimidazole] | 175
CN1CCC(OC(c2cccc(I)c2)c2nc3ccccc3n2C)CC1 (stereo not drawn) (as salt: oxalate) [Example 472, 2-[(3-iodophenyl)(1-methylpiperidin-4-yloxy)methyl]-1-methyl-1H-benzimidazole] | 76
Cc1cc(F)c(C(OC2CCN(C)CC2)c2nc3ccccc3o2)c(F)c1 (stereo not drawn) (as salt: oxalate) [Example 536] | 114
CN1CCC(OC(c2cccc(Oc3ccccc3)c2)c2nc3ccccc3s2)CC1 (stereo not drawn) (as salt: oxalate) [Example 28, 2-[(1-methylpiperidin-4-yloxy)(3-phenoxy-phenyl)methyl]benzothiazole] | 92
CCOC(=O)NCCCCC#Cc1cccc(C(OC2CCN(C)CC2)c2nc3ccccc3n2C)c1 (stereo not drawn) (as salt: oxalate) [Example 549, ethyl (6-{3-[(1-methyl-1H-benzimidazol-2-yl)(1-methylpiperidin-4-yloxy)methyl]phenyl}hex-5-ynyl)carbamate] | 90

The next lines start with the values.

melting point [°C] | SMILES
155 | CN1CCC(OC(c2ccc(OC(F)(F)F)cc2)c2nc3ccccc3s2)CC1 (stereo not drawn) (as salt: oxalate) [Example 24, 2-[(1-methylpiperidin-4-yloxy)(4-trifluoromethoxyphenyl)methyl]benzothiazole]
120 | Cc1cc(C(OC2CCN(C)CC2)c2nc3ccccc3s2)ccc1F (stereo not drawn) (as salt: oxalate) [Example 34, 2-[(4-fluoro-3-methylphenyl)(1-methylpiperidin-4-yloxy)methyl]benzothiazole]
182 | CN1CCC(OC(c2nc3ccccc3s2)c2ccc(F)cc2F)CC1 (stereo not drawn) (as salt: oxalate) [Example 12, 2-[(2,4-difluorophenyl)(1-methyl-piperidin-4-yloxy)methyl]-benzothiazole]
157 | COc1cc(F)cc(C(NC2CCN(C)CC2)c2nc3ccccc3s2)c1 (stereo not drawn) (as salt: oxalate) [Example 43, [benzothiazol-2-yl(3-fluoro-5-methoxyphenyl)methyl](1-methylpiperidin-4-yl)amine]
178 to 179 | CN1CCC(OC(c2nc3ccccc3s2)c2ccccc2F)CC1 (stereo not drawn) (as salt: oxalate) [Example 6, 2-[(2-fluorophenyl)(1-methylpiperidin-4-yloxy)methyl]benzothiazole]
175 | Cc1ccc2sc(C(OC3CCN(C)CC3)c3ccccc3)nc2c1 (stereo not drawn) (as salt: oxalate) [Example 29, 5-methyl-2-[(1-methylpiperidin-4-yloxy)phenylmethyl]benzothiazole]
80 | CN1CCC(OC(c2cccc(SCCN)c2)c2nc3ccccc3s2)CC1 (stereo not drawn) (as salt: oxalate) [Example 269, 2-{3-[benzothiazol-2-yl(1-methylpiperidin-4-yloxy)methyl]phenylsulfanyl}ethylamine]
75 | CN1CCC(OC(c2cccc(C#N)c2)c2nc3ccccc3s2)CC1 (stereo not drawn) (as salt: oxalate) [Example 197, 3-[benzothiazol-2-yl(1-methylpiperidin-4-yloxy)methyl]benzonitrile]
192 | CN1CCC(OC(c2ccc(F)cc2)c2nc3ccccc3s2)CC1 (stereo not drawn) (as salt: oxalate) [Example 3, 2-[(4-fluorophenyl)(1-methylpiperidin-4-yloxy)methyl]benzothiazole]
145 | COc1cc(F)cc(C(OC2CCN(C)CC2)c2nc3ccccc3s2)c1 (stereo not drawn) (as salt: oxalate) [Example 40, 2-[(3-fluoro-5-methoxyphenyl)(1-methylpiperidin-4-yloxy)methyl]benzothiazole]
70 | CN1CCC(OC(c2cccc(OCCCl)c2)c2nc3ccccc3s2)CC1 (stereo not drawn) (as salt: oxalate) [Example 354, 2-[[3-(2-Chloroethoxy)phenyl](1-methylpiperidin-4-yloxy)methyl]benzothiazole]
84 | CCOc1cccc(C(OC2CCN(C)CC2)c2nc3ccccc3s2)c1 (stereo not drawn) (as salt: oxalate) [Example 47, 2-[(3-ethoxyphenyl)(1-methylpiperidin-4-yloxy)methyl]benzothiazole]
123 | CCc1cccc(C(OC2CCN(C)CC2)c2nc3ccccc3s2)c1 (stereo not drawn) (as salt: oxalate) [Example 152, 2-[(3-ethylphenyl)(1-methylpiperidin-4-yloxy)methyl]benzothiazole]
